Results: patent US4281121A, “1,3,4-Thiadiazole-2-carboxylic acid derivatives, process for making the same and fungicidal and nematocidal compositions containing same” (Schering Aktiengesellschaft, priority 1978, dated 1981)

Experiments:
[1] = test system: Botrytis cinerea; test: Prophylactic leaf treatment of tomato plants against Botrytis cinerea; type: in vivo; settings: concentration of 0.025 of the active agent (unit not given)
[2] = test system: Tilletia caries; test: Treatment of oat seeds infested with Tilletia caries (spore germination); type: in vivo
[3] = test system: Helminthosporium gram; settings: 50 g active agent per 100 kg; about 5 weeks
Method: Treatment of barley seeds infested with Helminthosporium gram
After emergence, the plants were subjected to illumination for 12 hours per day. After about 5 weeks the infested plants were counted and the total number of plants for each test were also counted. The active agents tested were used as pulverulent compositions.

[4] = test system: Plasmopara viticola; test: Prophylactic leaf treatment of grapevines in the hothouse against Plasmopara viticola; type: in vivo
Method: Effects of prophylactic leaf treatment of grapevines in the hothouse against Plasmopara viticola
Young grapevine plants having from 5 to 8 leaves were sprayed dripping wet with the concentrations of active agents stated in the table below. After drying of the spray deposit the leaves were sprayed with an aqueous suspension of sporangia of the fungus (about 20,000 per ml); the spraying was applied to the bottom side of the leaves. The plants were then immediately incubated in a hothouse at a temperature of 22° to 24° C. and at maximum water saturation in the atmosphere. Beginning with the second day the humidity of the air was reduced for 3 to 4 days to normal level (30 to 70% saturation) and was then maintained for another day on the level of full saturation. Subsequently, the percentage portion of the fungus infested surface of each leaf was noted and the average per treatment was calculated in order to determine the fungicidal activity. This was done on the basis of the following formula: [formula]
The active compounds were applied in the form of a 20% concentration spray powder.

[5] = test system: Fusarium avenaceum; test: Threshold concentration test in case of Fusarium avenaceum (infested soil, garden peas); type: in vivo; settings: for number of sound peas: 20 grains per dish, 18 days at 20-24° C.; for root evaluation (1-4): 18 days
How it was run: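 Soil heavily infested with Fusarium avenaceum was mixed uniformly with a 20% powder formulation of active agent, then sown immediately with 20 garden pea seeds ('Wunder von Kelvedon') per dish. After 18 days in a greenhouse at 20° to 24° C., sound plants were counted and roots scored on a 1–4 scale.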

[6] = test system: Pythium ultimum; test: Threshold concentration test for use of the compounds against Pythium ultimum (infested soil, garden peas); type: in vivo; design: key to root evaluation (1-4): 4: white roots without fungous necrosis; 3: white roots, minor fungous necrosis; 2: brown roots, already more pronounced fungous necrosis; 1: heavy fungous necrosis, roots rotted; settings: for root evaluation (1-4): 3 weeks; for number of sound peas: 20 grains per dish, 3 weeks at 20-24° C.
How it was run: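 Garden pea seeds, 20 per dish, went straight into Pythium ultimum-infested soil into which 20% pulverulent formulations had been uniformly blended. Sound plants counted and roots rated 1–4 after three weeks of hothouse growth at 20–24 °C.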

[7] = test system: Venturia inaequalis; test: Prophylactic leaf treatment of apples in open field test against Venturia inaequalis; type: in vivo; settings: 3 weeks
[8] = test system: Piricularia oryzae; type: in vivo; settings: concentration of active agent 0.1 (percentages); 5 days
[9] = test system: Helminthosporium gramineum; test: Seed treatment in open field tests for infestation by Helminthosporium gramineum (barley); type: in vivo; settings: summer barley; 50 g active agent/100 kg barley; about 3 months
Method: Seed treatment in open field tests for infestation by Helminthosporium gramineum
The active agents were used in the form of pulverulent compositions. After about 8 months in case of winter barley and after about 3 months in case of summer barley the infested plants were counted and the activity was calculated by the formula [formula]

[10] = concentration of active agent 0.025 (unit not given)
[11] = concentration of active agent 0.005 (in gram)
[12] = concentration of active agent 0.025 (in gram)
[13] = concentration of active agent 0.005 (unit not given)

SMILES | % activity [1] [%] | % activity ([2]; 10 g active agent per 100 kg) [%] | % activity ([2]; 20 g active agent per 100 kg) [%] | % activity ([2]; 50 g active agent per 100 kg) [%] | % activity [3] [%] | % activity [4, 10] [%] | root evaluation (1-4) ([6]; 20 mg/l soil) | number of sound peas ([6]; 20 mg/l soil) | root evaluation (1-4) ([6]; 40 mg/l soil) | number of sound peas ([6]; 40 mg/l soil) | root evaluation (1-4) ([6]; 80 mg/l soil) | number of sound peas ([6]; 80 mg/l soil) | % activity [4, 13] [%] | also measured
CCS(=O)(=O)c1nnc(C(=O)NC2CCCCCCC2)s1 [5-ethylsulfonyl-1,3,4-thiadiazole-2-carboxylic acid-cyclooctylamide] | 93 | 100 | 100 | 100 | 98 | – | – | – | – | – | – | – | – | –
CCCCCCCCNC(=O)c1nnc(S(=O)(=O)CC)s1 [5-ethylsulfonyl-1,3,4-thiadiazole-2-carboxylic acid-octylamide] | 87 | 91 | 93 | 98 | – | 90 | – | – | – | – | – | – | – | –
CCCCCS(=O)(=O)c1nnc(C(N)=O)s1 [5-pentylsulfonyl-1,3,4-thiadiazole-2-carboxamide] | 87 | – | – | 80 | – | – | – | – | – | – | – | – | – | number of sound peas ([5]; 25 mg/l soil): 9; root evaluation (1-4) ([5]; 25 mg/l soil): 2; number of sound peas ([5]; 50 mg/l soil): 16; root evaluation (1-4) ([5]; 50 mg/l soil): 3; number of sound peas ([5]; 100 mg/l soil): 18; root evaluation (1-4) ([5]; 100 mg/l soil): 4
CC(C)NC(=O)c1nnc(S(C)(=O)=O)s1 [5-methylsulfonyl-1,3,4-thiadiazole-2-carboxylic acid-isopropylamide] | – | 100 | 100 | 100 | 90 | 96 | 4 | 15 | 4 | 18 | 4 | 15 | 76 | % activity [7, 11]: 85%; % activity [7, 12]: 100%; % activity [8]: 90%; % activity [9]: 100%
CCCCCCNC(=O)c1nnc([S+]([O-])CCC)s1 (stereo not shown) [5-propylsulfinyl-1,3,4-thiadiazole-2-carboxylic acid-hexylamide] | 80 | – | 100 | 100 | – | 100 | – | – | – | – | – | – | 99.1 | % activity ([4]; concentration of active agent 0.001 (unit not given)): 95%
CS(=O)(=O)c1nnc(C(=O)NC2CC2)s1 [5-methylsulfonyl-1,3,4-thiadiazole-2-carboxylic acid-cyclopropylamide] | 75 | – | 98 | 100 | – | – | 1 | 13 | 4 | 20 | 4 | 20 | – | –
CCNC(=O)c1nnc(S(C)(=O)=O)s1 [5-methylsulfonyl-1,3,4-thiadiazole-2-carboxylic acid-ethylamide] | – | 99.2 | 99.2 | 98 | 93 | 97 | 4 | 15 | 4 | 15 | 4 | 15 | 81 | % activity [7, 11]: 81%; % activity [7, 12]: 97%; % activity [8]: 90%; % activity [9]: 100%
CCCCNC(=O)c1nnc([S+]([O-])CCC)s1 (stereo not shown) [5-propylsulfinyl-1,3,4-thiadiazole-2-carboxylic acid-butylamide] | 80 | – | 100 | 100 | – | 99.1 | – | – | – | – | – | – | 91 | –
